Biological target: T1, MBR (mitochondrial benzodiazepine receptor) (Rattus norvegicus, UniProt P16257)
T1 construct: from tissue; host or cells: male Wistar rat whole brain with cerebellum removed, crude membrane pellet
Assay: Receptor binding experiment: [3H]PK11195 competition binding, rat brain membrane preparation
Settings: [3H]PK11195 0.5 or 1 nmol/L, 1 hour at room temperature, calculated by Cheng and Prusoff formula from KD and IC50, read-out: Ki value (inhibition constant)
Method: The affinity of the compounds in the present invention to MBR was determined using rat brain membrane preparation. In addition, the measurement in the present invention was improved the accuracy of measurement and the sensitivity of measurement for evaluating the compounds in the present invention as follows. After male Wister rats were decapitated to extirpate the whole brain and cerebellums were removed. They were homogenized in ice-cold 50 mmol/L Tris-HCL buffer solution (pH7.4), centrifuged and the obtained pellets were washed. The pellets resuspended and adjusted to about 1 mg/mL were used as rat brain membrane preparations for binding assay. The binding assay were experimented using [^3H]PK11195 as a MBR selective ligand. […]
To determine the amount of total binding in saturation binding experiment, membrane preparations, various concentrations of [^3H]PK11195, final concentration: 0.5 vol % dimethylsulfoxide (DMSO) and 50 mmol/L Tris-HCL buffer solution (pH7.4) were mixed (total volume 200 μL) and were incubated for 1 hour at room temperature. […] The filter was dried and then the radioactivity on the filter was measured by liquid scintillation counter. The data obtained by the binding experiments were Scatchard analyzed using analysis software, KELL (Ver.6, BIOSOFT) and the dissociation constant (KD value) was determined. […]

O=C(CCc1ccccc1)Nc1c2c(nn1-c1ccc(Cl)cc1)CSC2 [Example 8(8), N-[2-(4-chlorophenyl)-2,6-dihydro-4H-thieno[3,4-c]pyrazol-3-yl]-3-phenylpropanamide]
Ki: 0.099 µM

From US20080249154A1, “Preventive and/or Therapeutic Agent For Disease In Which Mitochondrial Benzodiazephine Receptor Participates” (ONO PHARMACEUTICAL CO., LTD., priority 2003, published 2008)
